Data taken from patent publication EP0063525A1, “Dibenzazepine tetracyclic derivatives, process for their preparation and pharmaceutical compositions containing them” (CENTRE NATIONAL DE LA RECHERCHE SCIENTIFIQUE (CNRS), priority 1981, dated 1982).
Where two headings read alike, the source gives them in different places.

What was measured:
[1] = tested on: Souris; assay: antireserpine activity: reserpine hypothermia; assay type: in vivo; conditions: réserpine 5 mg/kg i.p. 17 h before
Experimental: On note ensuite les températures témoins (réserpine), puis les températures 1, 2, 3 et 4 heures après l'administration des produits étudiés.
Les animaux sont répartis en lots de 4 animaux et reçoivent par voie intrapéritonéale la réserpine à une dose de 5 mg/kg. 17 heures après cette injection, on mesure la température corporelle de l'animal à l'aide d'une sonde thermocouple introduite dans le rectum; chaque lot reçoit ensuite la substance par voie intrapéritonéale. Le lot témoin reçoit la même quantité de solvant et par la même voie. La température corporelle est ensuite mesurée toutes les heures pendant 4 heures.
Les résultats sont rassemblés dans un tableau récapitulatif-où sont indiqués : • - la température moyenne pour chaque lot relevée 17 heures après l'injection de la réserpine, • - la moyenne des variations de température pour chaque lot relevées 1,2, 3 et 4 heures après l'injection de la substance étudiée, • - la somme des variations de températures pendant 4 heures, • - le pourcentage d'augmentation de la température pour chaque produit par rapport aux témoins.

[2] = tested on: souris femelles; assay: acute toxicity in the mouse, intraperitoneal; assay type: in vivo; conditions: voie intrapéritonéale; for Mortalité en 1 heure / Mortalité en 48 h. / Mortalité en 48 heures: dead mice of the group
Text: (§1) Les produits ont été administrés par voie intrapéritonéale à des souris femelles dont le poids variait de 18 à 30 g.
(§2) Les animaux injectés ont été maintenus dans une salle thermostatée, nourris et abreuvés à volonté.
(§3) La mortalité a été relevée à 1 heure, 4 heures, 24 heures et 48 heures.

[3] = acute toxicity in the mouse, intraperitoneal; assay type: in vivo, Souris; conditions: mouse, in vivo, ip, voie intrapéritonéale; for LD50 at 48 h: souris femelles, read-out: DL 50; for mortality at 48 h: read-out: Mortalité %
Text: as §1, §2, §3

| Molecule | Mortalité en 1 heure ([2]; 50 mg/kg) | Mortalité en 48 h. ([2]; 50 mg/kg) | Mortalité en 1 heure ([2]; 100 mg/kg) | Mortalité en 48 h. ([2]; 100 mg/kg) | LD50 at 48 h [3] | mortality at 48 h ([3]; 50 mg/kg) | mortality at 48 h ([3]; 100 mg/kg) | Mortalité en 1 heure ([2]; 300 mg/kg) | Mortalité en 48 h. ([2]; 300 mg/kg) | mortality at 48 h ([3]; 300 mg/kg) | Mortalité en 1 heure ([2]; 250 mg/kg) | Mortalité en 48 h. ([2]; 250 mg/kg) | mortality at 48 h ([3]; 250 mg/kg) | also measured |
| --- | --- | --- | --- | --- | --- | --- | --- | --- | --- | --- | --- | --- | --- | --- |
| c1ccc(C2=NOC3c4ccccc4Nc4ccccc4C23)cc1 (stereo not shown) [compound 1, phényl-3 trihydro-3a,8,12b (dibenzo [b,f]isoxazolo [4,5-d])azépine] | 0 | 0 | 0 | 0 | > 100 mg/kg | 0% | 0% |  |  |  |  |  |  | change in vivo at 15 mg/kg ([1]; ip, 4 h, product i.p. 15 mg/kg, read-out: % d'augmentation par rapport aux témoins): 45%; variation de température T= 2h ([1]; product i.p. 15 mg/kg): +0,5; variation de température T=3h ([1]; product i.p. 15 mg/kg): +0,4; variation de température T=4h ([1]; product i.p. 15 mg/kg): +0,7 |
| CC(CN(C)C)CN1c2ccccc2C2ON=C(c3ccccc3)C2c2ccccc21 (stereo not shown) [compound 4, (méthyl-2 diméthylamino-3 propyl)-8 phényl-3 trihydro-3a, 8, 12b (dibenzo[b,f]-isoxazolo [4,5-d]) azépine] |  |  | 0 | 0 | 175 mg/kg |  | 0% | 4 | 4 | 100% |  |  |  |  |
| OCCN1CCN(CCCN2c3ccccc3C3ON=C(c4ccccc4)C3c3ccccc32)CC1 (stereo not shown) [compound 5] |  |  |  |  | 125 mg/kg |  |  |  |  |  | 5 | 5 | 100% | Mortalité en 1 heure ([2]; 75 mg/kg): 1; Mortalité en 48 h. ([2]; 75 mg/kg): 1; Mortalité en 1 heure ([2]; 125 mg/kg): 2; Mortalité en 48 h. ([2]; 125 mg/kg): 2; Mortalité en 1 heure ([2]; 200 mg/kg): 5; Mortalité en 48 h. ([2]; 200 mg/kg): 5; mortality at 48 h ([3]; 75 mg/kg): 20%; mortality at 48 h ([3]; 125 mg/kg): 40%; mortality at 48 h ([3]; 200 mg/kg): 100% |
| c1ccc(C2=NN(c3ccccc3)C3c4ccccc4Nc4ccccc4C23)cc1 (stereo not shown) [compound 6, diphényl-1,3 tétrahydro-1,3a,8,12b(dibenzo [b,d]pyrazolo[3,4-d])hazépine] |  |  |  |  | > 750 mg/kg |  |  |  |  |  |  |  |  | change in vivo at 150 mg/kg ([1]; ip, 4 h, product i.p. 150 mg/kg, read-out: % d'augmentation par rapport aux témoins): 80%; variation de température T= 2h ([1]; product i.p. 150 mg/kg): +0,7; variation de température T=3h ([1]; product i.p. 150 mg/kg): +0,6; variation de température T=4h ([1]; product i.p. 150 mg/kg): +0,4; Mortalité en 1 heure ([2]; 500 mg/kg): 0; Mortalité en 48 h. ([2]; 500 mg/kg): 0; Mortalité en 1 heure ([2]; 750 mg/kg): 0; Mortalité en 48 h. ([2]; 750 mg/kg): 0; mortality at 48 h ([3]; 500 mg/kg): 0%; mortality at 48 h ([3]; 750 mg/kg): 0% |
| CN(C)CCCN1c2ccccc2C2C(c3ccccc3)=NN(c3ccccc3)C2c2ccccc21 (stereo not shown) [compound 8, (y-diméthylaminopropyl)-8 diphênyl-1,3 tétrahydro-1,3a,8, 12b(dibenzo [b,f]pyrazolo [3,4-d])azépine] | 0 | 0 | 0 | 0 | > 250 mg/kg | 0% | 0% |  |  |  | 0 | 0 | 0% | Mortalité en 1 heure ([2]; 5 mg/kg): 0; Mortalité en 48 h. ([2]; 5 mg/kg): 0; Mortalité en 1 heure ([2]; 150 mg/kg): 1; Mortalité en 48 h. ([2]; 150 mg/kg): 1; mortality at 48 h ([3]; 5 mg/kg): 0%; mortality at 48 h ([3]; 150 mg/kg): 20% |
| CC(CN(C)C)CN1c2ccccc2C2C(c3ccccc3)=NN(c3ccccc3)C2c2ccccc21 (stereo not shown) [compound 9, (méthyl-2 diméthylamino-3 propyl)-8 diphényl-1,3 tétrahydro-1,3a, 8, 12b (dibenzo [b, f]pyrazolo [3,4-d])azépine] |  |  |  |  | > 300 mg/kg |  |  | 0 | 0 | 0% |  |  |  | change in vivo at 50 mg/kg ([1]; ip, 4 h, product i.p. 50 mg/kg, read-out: % d'augmentation par rapport aux témoins): 60%; variation de température T= 2h ([1]; product i.p. 50 mg/kg): +0,8; variation de température T=3h ([1]; product i.p. 50 mg/kg): +0,6; variation de température T=4h ([1]; product i.p. 50 mg/kg): +0,1; Mortalité en 1 heure ([2]; 150 mg/kg): 0; Mortalité en 48 h. ([2]; 150 mg/kg): 0; mortality at 48 h ([3]; 150 mg/kg): 0% |
| CC(CN(C)C)CN1c2ccccc2-c2c(-c3ccccc3)nn(-c3ccccc3)c2-c2ccccc21 (stereo not shown) [compound 15, (méthyl-2 diméthylamino-3 propyl)-8 diphényl 1,3 dihydro-1,8(dibenzo [b,f]pyrazolo [3 ,4-d]) azépine] | 0 | 0 | 0 | 0 | 175 mg/kg | 0% | 0% | 0 | 4 | 80% | 2 | 4 | 80% |  |
| c1ccc(-c2noc3c2-c2ccccc2Nc2ccccc2-3)cc1 [compound 16, phényl-3 (dibenzo [b,f]isoxazolo [4,5-d]) 8H azépine] | 0 | 0 | 0 | 0 | > 1000 mg/kg | 0% | 0% |  |  |  | 0 | 1 | 20% | Mortalité en 1 heure ([2]; 500 mg/kg): 0; Mortalité en 48 h. ([2]; 500 mg/kg): 0; Mortalité en 1 heure ([2]; 1000 mg/kg): 0; Mortalité en 48 heures ([2]; 1000 mg/kg): 0; mortality at 48 h ([3]; 500 mg/kg): 0%; mortality at 48 h ([3]; 1000 mg/kg): 0% |
| (γ-diméthylaminopropyl)-8 phényl-1 (chloro-4' phényl)-3 tétrahydro-1,3a, 8,12b(dibenzo[b,f]pyrazolo [3,4-d])azépine [compound 11] |  |  |  |  |  |  |  |  |  |  | 0 | 0 |  | % d'augmentation par rapport aux témoins ([1]; product i.p. 150 mg/kg): 85%; variation de température T= 2h ([1]; product i.p. 150 mg/kg): +0,4; variation de température T=3h ([1]; product i.p. 150 mg/kg): +0,5; variation de température T=4h ([1]; product i.p. 150 mg/kg): +0,7; DL 50 ([2]; souris femelles, 2880 min): >1000 mg/kg; Mortalité % ([2]; 250 mg/kg, 2880 min): 0%; Mortalité % ([2]; 450 mg/kg, 2880 min): 0%; Mortalité en 1 heure ([2]; 450 mg/kg): 0; Mortalité en 48 heures ([2]; 450 mg/kg): 0; Mortalité % ([2]; 1000 mg/kg, 2880 min): 0%; Mortalité en 1 heure ([2]; 1000 mg/kg): 0; Mortalité en 48 heures ([2]; 1000 mg/kg): 0 |
